Literature values in patent US20200030265A1, “ANTI[…] AND USES THEREOF” (CSP PHARMA, INC., priority 2017, published 2020).

Tested on: ASDs mouse model
Conditions: includes core social deficits, sensorimotor coordination, Purkinje cell loss, P2Y2 and P2X7 expression (Naviaux et al. 2013)

For `Cc1ccc(C(=O)Nc2ccc(S(=O)(=O)O)c3cc(S(=O)(=O)O)cc(S(=O)(=O)O)c23)cc1NC(=O)c1cccc(NC(=O)Nc2cccc(C(=O)Nc3cc(C(=O)Nc4ccc(S(=O)(=O)O)c5cc(S(=O)(=O)O)cc(S(=O)(=O)O)c45)ccc3C)c2)c1` [suramin, Suramin], the “multisystem abnormalities that defined the ASD-like phenotype corrected” value is given as 16.
